Some test systems named below: MDA-MB-435; BT-549 breast; 786-0 renal; SN12C renal; IGROV1 ovarian; HT29 colon; HCT-116 colon.
Assay in all cases: NCI-60 cell line screen, 48 h

Results on twelve compounds are retold here after PubChem BioAssay (NCI).

Each structure is given as a SMILES string.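 The compound was tested at five concentrations on cells cultured in 96-well plates, with a 48-hour exposure period. GI50 is the concentration that inhibits growth by half. The concentration for full growth arrest is given as TGI.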

Take `O=C(O)CC(CC(=O)O)n1cccc1`: the TGI in the test with MDA-MB-435, in the test with BT-549 breast, in the test on 786-0 renal, in the test on SN12C renal, in the test on IGROV1 ovarian and with HT29 colon was greater than 100 µM in each case. In the test on HCT-116 colon, this compound showed a TGI greater than 100 µM.
Take `Cc1ncc2c(n1)CCC1=C2OS(=O)(=O)CC1N(C)C` (configuration not stated): the TGI in the test on MDA-MB-435, in the test on BT-549 breast, in the test with 786-0 renal, in the test on SN12C renal, in the test with IGROV1 ovarian and in the test on HT29 colon was greater than 100 µM throughout. The same compound yielded a TGI in the test on HCT-116 colon greater than 100 µM.
Regarding `CC(C)OC(=O)NNc1c(Cl)cc(Cl)cc1Cl`, the TGI in the test on MDA-MB-435, with BT-549 breast, with 786-0 renal, in the test with SN12C renal, with IGROV1 ovarian and with HT29 colon was greater than 100 µM each time. This compound also registered a TGI with HCT-116 colon greater than 100 µM.
Regarding `Nc1ccccc1SC(CC(=O)c1ccccc1)c1c(Cl)cccc1Cl` (configuration not stated), the GI50 in the test on MDA-MB-435 is 2.87 µM; in the test with BT-549 breast, 3.46 µM; in the test on 786-0 renal, 9.73 µM; with SN12C renal it was 2.94 µM; in the test on IGROV1 ovarian, 2.74 µM; with HT29 colon it was 2.29 µM. Further, the GI50 in the test with HCT-116 colon is 1.81 µM. In addition, the TGI with MDA-MB-435 stood at 10.7 µM; with BT-549 breast, 13.3 µM; in the test with 786-0 renal, 23.2 µM; with SN12C renal, 11.5 µM; with IGROV1 ovarian it was 8.62 µM; in the test with HT29 colon it was 5.03 µM. The same compound registered a TGI in the test on HCT-116 colon of 4.56 µM.
In the case of `CCc1n(Cc2ccc3ccccc3c2)cc[n+]1Cc1ccc2ccccc2c1`, the GI50 is 0.424 µM in the test on MDA-MB-435; 0.674 µM in the test on BT-549 breast; 1.52 µM with 786-0 renal; 0.572 µM with SN12C renal; 0.736 µM with IGROV1 ovarian; 0.563 µM in the test on HT29 colon. Also, the GI50 in the test with HCT-116 colon was 0.865 µM. Also, the TGI was 1.57 µM in the test on MDA-MB-435; 2.12 µM in the test with BT-549 breast; 3.04 µM in the test with 786-0 renal; 2.12 µM with SN12C renal; 2.32 µM in the test with IGROV1 ovarian; 2.23 µM with HT29 colon. In the test with HCT-116 colon, this compound showed a TGI of 2.16 µM.
Regarding `O=[N+]([O-])c1cc2c(ccc3ccccc32)o1`, the GI50 is 0.158 µM in the test with MDA-MB-435; 0.72 µM in the test on 786-0 renal; 0.568 µM in the test on SN12C renal; 0.703 µM in the test on IGROV1 ovarian; 0.307 µM with HT29 colon; 0.215 µM in the test on HCT-116 colon. Besides, the TGI with MDA-MB-435 came to 0.35 µM; in the test with 786-0 renal, 3.63 µM; in the test on SN12C renal it was 22.7 µM; with IGROV1 ovarian, 5.56 µM; in the test on HT29 colon it was 1.8 µM; in the test with HCT-116 colon, 0.855 µM.
In the case of `CCOC(=O)c1nc2sc(Cl)cn2c1/C=N/N=C(N)N`, the GI50 in the test on MDA-MB-435 was 25.3 µM; in the test on BT-549 breast it was 28.3 µM; in the test with 786-0 renal, 18.6 µM; with SN12C renal, 24 µM; in the test on IGROV1 ovarian, 32.7 µM; with HT29 colon, 28.7 µM. In the test on HCT-116 colon, the GI50 is 18 µM. Also, the TGI in the test on MDA-MB-435 was greater than 58.2 µM; in the test on BT-549 breast it was greater than 59.6 µM; in the test on 786-0 renal, 39.8 µM; with SN12C renal it was 57.6 µM; in the test on IGROV1 ovarian, greater than 100 µM; with HT29 colon, greater than 86.4 µM. The TGI in the test with HCT-116 colon is 40.8 µM.
On to `COc1cc2c(cc1OCCCN1CCN(CCCOc3cc4c(cc3OC)C(=O)N3C[C@H](F)C[C@H]3C=N4)CC1)N=C[C@@H]1C[C@@H](F)CN1C2=O`, for which the GI50 with MDA-MB-435 was 0.105 µM; in the test on BT-549 breast, 0.113 µM; with 786-0 renal, 0.0263 µM; with SN12C renal, 0.0139 µM; in the test on IGROV1 ovarian, 0.0696 µM; with HT29 colon, 0.148 µM. In addition, the GI50 with HCT-116 colon was 0.034 µM. Besides, the TGI in the test with MDA-MB-435 is 0.288 µM; in the test on BT-549 breast it was 0.464 µM; in the test with 786-0 renal it was 0.763 µM; in the test on SN12C renal it was 12.2 µM; with IGROV1 ovarian it was 1.88 µM; in the test on HT29 colon, greater than 37.2 µM. For the same compound, the TGI with HCT-116 colon amounted to 0.252 µM.
With `Cc1c(C(=O)Nc2ccc(Oc3ccnc4cc(OCC(C)(C)O)ccc34)c(F)c2)c(=O)n(-c2ccccc2)n1C`, the GI50 was 4.53 µM in the test on BT-549 breast, 5.2 µM in the test with 786-0 renal and 2.29 µM with HT29 colon. The TGI in the test with BT-549 breast, in the test with 786-0 renal and with HT29 colon was greater than 100 µM in each case.
`COc1cccc(C2=C(c3cn(C)c4c(C)cccc34)C(=O)NC2=O)c1`: the GI50 is 18.2 µM in the test with MDA-MB-435; greater than 25 µM in the test with BT-549 breast; 15.8 µM with 786-0 renal; greater than 25 µM in the test with SN12C renal; greater than 25 µM with IGROV1 ovarian; greater than 19.6 µM in the test on HT29 colon. Also, the GI50 with HCT-116 colon was greater than 18 µM. Moreover, the TGI in the test on MDA-MB-435, with BT-549 breast, in the test with 786-0 renal, in the test on SN12C renal, with IGROV1 ovarian and in the test on HT29 colon was greater than 25 µM each time. The TGI in the test on HCT-116 colon was greater than 25 µM.
For the compound `N#C/C(=C\c1ccccn1)c1nc2ccccc2o1`, the GI50 is 34.6 µM with MDA-MB-435; 17.3 µM with BT-549 breast; 35.3 µM with 786-0 renal; 32.5 µM in the test with SN12C renal; 18.4 µM in the test on IGROV1 ovarian; 30.6 µM with HT29 colon. In addition, the GI50 in the test with HCT-116 colon was 18.9 µM. Also, the TGI in the test with MDA-MB-435 was greater than 100 µM; with BT-549 breast, 36.1 µM; in the test with 786-0 renal, greater than 100 µM; in the test with SN12C renal, greater than 100 µM; in the test on IGROV1 ovarian it was greater than 100 µM; with HT29 colon, 95.2 µM. Besides, the TGI in the test with HCT-116 colon came out at 40.3 µM.
Consider `Cc1nc2ccccc2c(/C=C/c2ccc(F)cc2)c1C(=O)/C=C/c1ccccc1`, for which the GI50 was 2.94 µM in the test on MDA-MB-435; 2.98 µM in the test on BT-549 breast; 2.03 µM with 786-0 renal; 2.25 µM in the test with SN12C renal; 1.71 µM in the test on IGROV1 ovarian; 2.81 µM in the test with HT29 colon. For the same compound, the GI50 in the test on HCT-116 colon was 1.25 µM. Also, the TGI in the test with MDA-MB-435 is 12.2 µM; with BT-549 breast, 13.6 µM; with 786-0 renal, 4.36 µM; with SN12C renal, 6.07 µM; in the test with IGROV1 ovarian, 6.15 µM; in the test with HT29 colon, greater than 100 µM. In addition, the TGI in the test on HCT-116 colon is 3.66 µM.
